Consider 3 compounds from patent publication US6489098B1, “Means and methods for monitoring nucleoside reverse transcriptase inhibitor antiretroviral therapy and guiding therapeutic decisions in the treatment of HIV/AIDS” (ViroLogic, Inc., priority 1998, dated 2002).

The subject of test [1] is HIV with M41L, L210W, T215Y plus M184V. As to conditions: cited from earlier work.
The subject of test [2] is HIV-1 RT mutant resistance test vector V75I+Q151M. The experiment in a line: Phenotypic susceptibility assay, site directed RTV V75I+Q151M. The settings on record: RTV with V75I+Q151M. The class given is cell-based. As to the method: Resistance tests were carried out with resistance test vectors using two host cell types. Resistance test vector viral particles were produced by a first host cell (the resistance test vector host cell) that was prepared by transfecting a packaging host cell with the resistance test vector and the packaging expression vector. The resistance test vector viral particles were then used to infect a second host cell (the target host cell) in which the expression of the indicator gene is measured.
The resistance test vectors containing a functional luciferase gene cassette were constructed and host cells were transfected with the resistance test vector DNA. […] The IC50 values were determined by plotting percent drug inhibition vs. log 10 drug concentration.
Host cells were seeded in 10-cm-diameter dishes and were transfected several days after plating with resistance test vector plasmid DNA and the envelope expression vector. […] HIV capsid protein (p24) levels in the harvested cell culture media were determined by an EIA method as described by the manufacturer (SIAC; Frederick, Md.). […] The inhibitory effect of the drug was determined using the following equation: […]

In test [3] the test system is HIV with RT mutation at codon 50. As to conditions: mutation at codon 50, in vitro; cited from earlier work.
Test [4] concerns HIV with RT Thr69→Asp mutation. As to conditions: cited from earlier work.

“Also recorded” adds a separate entry of the source.

On to `Nc1nc(NC2CC2)c2ncn([C@H]3C=C[C@@H](CO)C3)c2n1` [ABC, abacavir], for which the “fold reduction in susceptibility” value in test [1] is on record as “eight fold”. For the compound `Cc1cn([C@H]2C=C[C@@H](CO)O2)c(=O)[nH]c1=O` [d4T, stavudine], in test [2], the “effect on susceptibility (words)” value is “decreased susceptibility to d4T; also recorded: reduced d4T and AZT susceptibility”. Also, in test [3], the “fold reduction in sensitivity” value is 30 fold. For `Nc1ccn([C@H]2CC[C@@H](CO)O2)c(=O)n1` [ddC, zalcitabine], the “fold reduction in sensitivity” value in test [4] is “five-fold”.
